Experimental data published in US20130109655A1, “Method for mitigating of Prostaglandin E2 reducing side effects of non-steroidal anti-inflammatory drugs” (priority 2011, published 2013).
“And” between values parts separate entries of the source, which are not always exact repeats. Equal values may be shown once. Read-outs that look alike come from different tables or passages of the source.

How the values were obtained:
prostaglandin e2 [1] = details: cited from earlier work; for change in serum levels of prostaglandin e2: niceritrol alone, Aspirin® added to niceritrol
prostaglandin e2 [2] = details: cited from earlier work; for effect on nicotine-initiated prostaglandin e2 production: cells treated with 100 mcM nicotine, NSAID 0.1 to 100 mcM; for prostaglandin e2 concentration: nicotine (100 mcM) pre-treated cells, highest NSAID concentration (log M=−4), absence of IL-18, basal 337 pM, digitised from published graph
prostaglandin e2 [3] = details: cited from earlier work; for prostaglandin e2 concentration: nicotine pre-treated cells, highest NSAID concentration (log M=−4), absence of IL-18, basal 0.35 nM, digitised from published graph; for effect on nicotine-induced PGE2 production: nicotine-treated cells
[4] = test system: prostaglandin e2 like substance (PGe2-LS); details: cited from earlier work; for PGe2-LS release (M±SE): samples treated with indomethacin and the pyridine derivative, control group 0.54±0.06, n=5
prostaglandin e2 [5] = experiment: serum prostaglandin e2 levels in normal male volunteers after niceritrol and Aspirin® (Nozaki et al. 1987); type: in vivo, human; details: after administration of niceritrol and Aspirin®; basal 23.3±11.8 pg/ml
From the text: FIG. 3. is prostaglandin e2 section extracted by inventors from graph of FIG. 1. from publication “Increased compliance of niceritrol treatment by addition of Aspirin®: relationship between changes in prostaglandins and skin flushing.” (Nozaki, S. et al., 1987, Int J Clin Pharmacol Ther Toxicol, v 25, p: 643-7). Inventors marked on said figure extracted by inventors by using UN-SCAN-IT® basal (52.3, 33.6, 26.6, 21.2, 19.1, 18.1, 16.8, 16.0, 15.1, 13.9), and after niceritrol and Aspirin® administration (46.2, 16.6, 42.0, 44.1, 8.2, 11.4, 18.6, 9.9, 27.6, 6.2) concentration coordinates (pg/ml) of prostaglandin e2. […]
Inventors used UN-SCAN-IT® to obtain digital concentration data from prostaglandin e2 section of the graph from the FIG. 1. of the publication (FIG. 3.). The obtained by inventors serum basal (52.3, 33.6, 26.6, 21.2, 19.1, 18.1, 16.8, 16.0, 15.1, 13.9), and after niceritrol and Aspirin® administration (46.2, 16.6, 42.0, 44.1, 8.2, 11.4, 18.6, 9.9, 27.6, 6.2) prostaglandin e2 digital levels (pg/ml) were statistically analysed using paired t-test.

[6] = test system: radioimmunoassayed prostaglandin E (R-PGE); details: naproxen and nicotinic acid, basal 35.6±29.8, cited from earlier work
[7] = test system: radioimmunoassayed prostaglandin E (R-PGE); details: basal 21±10 pg/ml, cited from earlier work

SMILES: CC(=O)Oc1ccccc1C(=O)O [Aspirin®]
- change in serum levels of prostaglandin e2 (prostaglandin e2 [1]): significantly decreased

SMILES: CS(=O)(=O)Nc1ccc([N+](=O)[O-])cc1OC1CCCCC1 [NS398]
- effect on nicotine-initiated prostaglandin e2 production (prostaglandin e2 [2]): suppressed
- prostaglandin e2 concentration (prostaglandin e2 [2]): 761 pM
- prostaglandin e2 concentration (prostaglandin e2 [3]): 0.55 nM
- effect on nicotine-induced PGE2 production (prostaglandin e2 [3]): inhibited

SMILES: COc1ccc2c(c1)c(CC(=O)O)c(C)n2C(=O)c1ccc(Cl)cc1 [indomethacin]
- effect on nicotine-initiated prostaglandin e2 production (prostaglandin e2 [2]): suppressed
- prostaglandin e2 concentration (prostaglandin e2 [2]): 768 pM
- prostaglandin e2 concentration (prostaglandin e2 [3]): 0.50 nM
- effect on nicotine-induced PGE2 production (prostaglandin e2 [3]): inhibited
- effect on PGe2-LS release stimulated by pyridine derivatives ([4]; indomethacin treatment): reduced

SMILES: O=C(OCC(COC(=O)c1cccnc1)(COC(=O)c1cccnc1)COC(=O)c1cccnc1)c1cccnc1 [niceritrol]
- serum prostaglandin e2 level, individual volunteers (prostaglandin e2 [1]; after niceritrol and Aspirin® administration, 10 normal male volunteers, digitised from published graph): 46.2 pg/mL and 6.2 pg/mL and 16.6 pg/mL and 42.0 pg/mL and 44.1 pg/mL and 8.2 pg/mL and 11.4 pg/mL and 18.6 pg/mL and 9.9 pg/mL and 27.6 pg/mL
- change in serum levels of prostaglandin e2 (prostaglandin e2 [1]): significantly increased
- mean (M±SD) serum prostaglandin e2 concentration (prostaglandin e2 [5]): 23.1 ± 15.8 pg/mL

SMILES: O=C(O)c1cccnc1 [nicotinic acid]
- actual release of R-PGE (M±SE) ([6]; 5 min): 8.2±13.8 pg/100 ml tissue×min
- actual release of R-PGE (M±SE) ([6]; 10 min): 10.6±16.6 pg/100 ml tissue×min
- actual release of R-PGE (M±SE) ([6]; 20 min): 18.8±16.2 pg/100 ml tissue×min
- actual release of R-PGE (M±SE) ([6]; 60 min): 15.1±13 pg/100 ml tissue×min
- plasma concentration of R-PGE (M±SE) ([7]; infusion of nicotinic acid): 49 ± 7 pg/mL
- plasma concentration of R-PGE (M±SE) ([7]; nicotinic acid infusion after naproxen treatment, n=3): 8 ± 2 pg/mL
- PGe2-LS release (M±SE) [4]: 0.63 ± 0.03 ng/min

SMILES: OCc1cccnc1 [nicotinyl alcohol]
- PGe2-LS release (M±SE) [4]: 0.52 ± 0.06 ng/min

SMILES: CN(C)C(=O)Oc1ccc[n+](C)c1 [pyridostigmine bromide]
- PGe2-LS release (M±SE) [4]: 0.50 ± 0.06 ng/min

SMILES: Cc1ncc(CO)c(CO)c1O.Cl [pyridoxine hydrochloride]
- PGe2-LS release (M±SE) [4]: 0.44 ± 0.02 ng/min
